# What was measured:
# [1] = tested on: SARS-CoV-2; test: Antiviral efficacy by RNA copy numbers (qRT-PCR), co-treatment, Calu-3 human lung cell line; conditions: Calu-3 cells; for selectivity index, SI / IC50: 48 hours post-infection; for IC50: co-treatment
# [2] = tested on: SARS-CoV-2; test: Antiviral efficacy by RNA copy numbers (qRT-PCR, RdRp gene), co-treatment, Vero cells
# [3] = Cytotoxicity (WST-1), Calu-3 cells; conditions: human
# [4] = tested on: Vero cells; test: Cytotoxicity, tetrazolium salts-based assay (WST-1), Vero cells; format: cell-based, African green monkeys (Chlorocebus sp.); conditions: all conditions tested (3.13, 12.5, 50 μM)
# [5] = tested on: SARS-CoV-2; test: Post-infection treatment, viral plaque assay, Calu-3 cells; format: cell-based, SARS-CoV-2 (a Korean isolate); conditions: Severe acute respiratory syndrome coronavirus 2, Calu-3, 12.5 μM, 48 hours after drug treatment
# Description: In Experimental Example 6, pyronaridine tetraphosphate or artesunate was treated each in Calu-3 cells at 0, 2, 4, 6, 8, 10, 12, 24 and 36 hours after SARS-CoV-2 (a Korean isolate) inoculation, and evaluated how long hours the inhibitory effect of each drug were retained against virus infections.
# Calu-3 cells and viruses were prepared in the same manner as shown in Experimental Example 5.
# After dissolving pyronaridine tetraphosphate and artesunate in DMSO each, it was diluted to 12.5 μM using media. At 1 hour after the inoculation with SARS-CoV-2 (MOI=0.1), the supernatant was removed, and Calu-3 cells were washed, followed by the addition of DMEM culture media containing 2% bovine serum. The culture media containing drugs were added at 0, 2, 4, 6, 8, 10, 12, 24 and 36 hours each. At 48 hours after each drug treatment, cell supernatants were harvested and a plaque assay—in which the plaques generated by infectious virus infection were counted in Vero cells, cells used for virus amplification—was performed. The DMEM-F12 medium layer containing 2% agarose was laid on the layer of infected Vero cells, and the number of plaques was counted by using counter-staining with crystal violet, after incubation for 72 hours.
# [6] = tested on: Ebola virus; conditions: in vitro assays; cited from earlier work
# [7] = tested on: Ebola virus; conditions: guinea pig models infected with Ebola virus; cited from earlier work
# [8] = tested on: Ebola virus; conditions: Vero cells; cited from earlier work
# [9] = tested on: Vero cells; conditions: African green monkey (Chlorocebus sp.)
# [10] = tested on: Hela cells; conditions: cited from earlier work
# [11] = tested on: SARS-CoV-2; test: Antiviral efficacy by immunofluorescence staining imaging, pretreatment, Vero cells; conditions: 50 μM, pretreated 1 hour, 24 hours post-infection
# [12] = tested on: Ebola virus; conditions: Hela cells; cited from earlier work
# [13] = tested on: SARS-CoV-2; test: In vivo antiviral efficacy in SARS-CoV-2-infected hamsters, lung virus titer by plaque assay; set-up: species or system Syrian hamsters; conditions: 360 mg/kg alone, oral, once at 25 hours post-infection, 4-day post-infection; vehicle control 8.30
# [14] = tested on: Ebola virus; conditions: cited from earlier work
# [15] = tested on: Vero cells; conditions: cited from earlier work
# [16] = in vitro; conditions: human
# [17] = added at up to 6 hours post-infection
# [18] = added at up to 12 hours post-infection
# [19] = added at up to 24 hours post-infection
# [20] = co-treatment, Vero cells, 24 hours after infection
compound,measurement,setting,value
C[C@H]1[C@H](OC(=O)CCC(=O)O)O[C@@H]2O[C@@]3(C)CC[C@H]4[C@H](C)CC[C@@H]1[C@@]24OO3 [artesunate],"selectivity index, SI",[1],> 220.8
same,IC50,[1],0.45 µM
same,inhibition rate,"[2]; 3.13 μM, 48 hours post-infection, Vero cells",39%
same,inhibition rate,"[2]; 12.5 μM, 24 hours post-infection, Vero cells",40%
same,inhibition rate,"[2]; 12.5 μM, 48 hours post-infection, Vero cells",51%
same,inhibition rate against virus,"[2]; 50 μM, Vero cells, co-treatment",83%
same,CC50 at 48 h,[3],> 100 µM
same,cytotoxicity,[4],no significant cytotoxicity
same,inhibition at 12.5 µM,[5]; [17],92 to 96%
same,inhibition at 12.5 µM,[5]; [18],> 90%
same,inhibition at 12.5 µM,[5]; [19],48%
same,antiviral efficacy against Ebola virus,[6],showed an antiviral efficacy
CCN(CC)CCCC(C)Nc1ccnc2cc(Cl)ccc12 (stereo not drawn) [chloroquine],antiviral effect,[7],did not show antiviral effect
CCN(CCO)CCCC(C)Nc1ccnc2cc(Cl)ccc12 (stereo not drawn) [hydroxychloroquine],antiviral effect in the human lung cell lines,[1]; at less than 50 μM,no antiviral effect
same,antiviral efficacy in the monkey cell lines,[2]; monkey cell lines (Vero),showed antiviral efficacy
COc1ccc2nc3cc(Cl)ccc3c(Nc3cc(CN4CCCC4)c(O)c(CN4CCCC4)c3)c2n1 [pyronaridine],antiviral activity against Ebola virus at a concentration below CC50,[8],no antiviral activity
same,"selectivity index, SI",[1],> 11.66
same,IC50,[1],8.58 µM
same,"selectivity index, SI","[2]; Vero cells, co-treatment",> 1.40
same,EC50,[2]; [20],8.27 µM
same,inhibition at non-cytotoxic concentrations,[2]; [20],more than 90%
same,cytotoxicity increased by drug pretreatment,[9],17%
same,CC50,[10],3.1 µM
same,virus inhibition rate,[11],70%
same,EC50,[12],0.42 to 1.12 µM
same,median infectious virus titer in the lung tissues,[13],7.22 Log10 PFU
same,inhibition at 12.5 µM,[5]; [17],> 99%
same,inhibition at 12.5 µM,[5]; [18],> 94%
same,inhibition at 12.5 µM,[5]; [19],90%
same,virus titer and survival rate,[14]; Ebola virus-challenged mouse models,significantly improved
same,mortality and viral infection rate,[14]; mouse models challenged with Ebola virus,significantly inhibited
same,CC50,[15],1.3 µM
same,CC50 at 48 h,[16],> 100 µM
